Results from ChEMBL document CHEMBL3763143, “Novel morpholine scaffolds as selective dopamine (DA) D3 receptor antagonists” (Bioorg Med Chem Lett, 2016).
pIC50, pKi: −log10 of the molar value.

Assays:
D(3) dopamine receptor = D(3) dopamine receptor (Rattus norvegicus, UniProt P19020)
Description: Displacement of [125I]-7-OH-PIPAT from rat brain dopamine D3 receptor after 45 mins by microplate scintillation counting analysis

[1] = target: Voltage-gated inwardly rectifying potassium channel KCNH2 (Homo sapiens, UniProt Q12809); test: Displacement of [3H]-dofetilide from human ERG potassium channel by scintillation proximity assay
[2] = target: T1, Muscarinic acetylcholine receptor M1 (Homo sapiens, UniProt P11229); test: Antagonist activity at muscarinic M1 receptor (unknown origin)
T1 sequence (P11229 whole entry): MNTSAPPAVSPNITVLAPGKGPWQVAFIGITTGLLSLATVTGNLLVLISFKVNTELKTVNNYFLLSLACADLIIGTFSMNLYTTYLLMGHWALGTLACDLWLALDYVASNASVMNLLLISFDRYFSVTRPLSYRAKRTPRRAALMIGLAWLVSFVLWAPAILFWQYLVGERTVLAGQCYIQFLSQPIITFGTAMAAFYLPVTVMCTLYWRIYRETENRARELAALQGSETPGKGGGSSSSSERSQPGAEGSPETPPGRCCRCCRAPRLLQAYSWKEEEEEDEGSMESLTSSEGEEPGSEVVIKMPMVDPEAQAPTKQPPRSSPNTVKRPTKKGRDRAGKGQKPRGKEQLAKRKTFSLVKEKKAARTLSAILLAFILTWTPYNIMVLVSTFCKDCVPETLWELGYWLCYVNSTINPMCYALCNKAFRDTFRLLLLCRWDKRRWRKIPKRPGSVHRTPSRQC

Cytochrome P450 1A2 = target: T2, Cytochrome P450 1A2 (Homo sapiens, UniProt P05177); test: Inhibition of human CYP1A2 expressed in bactosome; format: ADME
T2 sequence (P05177 whole entry): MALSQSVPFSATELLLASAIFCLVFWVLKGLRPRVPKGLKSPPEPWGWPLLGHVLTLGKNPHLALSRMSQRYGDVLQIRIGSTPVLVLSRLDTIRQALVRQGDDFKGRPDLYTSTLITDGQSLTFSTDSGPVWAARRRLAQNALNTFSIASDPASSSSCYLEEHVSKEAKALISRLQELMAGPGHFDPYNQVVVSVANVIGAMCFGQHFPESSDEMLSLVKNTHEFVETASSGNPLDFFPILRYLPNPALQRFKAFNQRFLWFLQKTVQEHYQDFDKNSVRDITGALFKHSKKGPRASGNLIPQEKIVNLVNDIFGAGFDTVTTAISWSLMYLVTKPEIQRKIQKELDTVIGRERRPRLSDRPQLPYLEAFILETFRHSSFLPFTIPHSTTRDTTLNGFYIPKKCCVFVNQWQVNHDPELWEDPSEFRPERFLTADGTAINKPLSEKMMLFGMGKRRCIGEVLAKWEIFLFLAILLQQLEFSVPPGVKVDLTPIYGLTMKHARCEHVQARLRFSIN

Cytochrome P450 2C9 = Cytochrome P450 2C9 (Homo sapiens, UniProt P11712); test: Inhibition of human CYP2C9 expressed in bactosome; format: ADME
Cytochrome P450 2C9, sequence (P11712 whole entry): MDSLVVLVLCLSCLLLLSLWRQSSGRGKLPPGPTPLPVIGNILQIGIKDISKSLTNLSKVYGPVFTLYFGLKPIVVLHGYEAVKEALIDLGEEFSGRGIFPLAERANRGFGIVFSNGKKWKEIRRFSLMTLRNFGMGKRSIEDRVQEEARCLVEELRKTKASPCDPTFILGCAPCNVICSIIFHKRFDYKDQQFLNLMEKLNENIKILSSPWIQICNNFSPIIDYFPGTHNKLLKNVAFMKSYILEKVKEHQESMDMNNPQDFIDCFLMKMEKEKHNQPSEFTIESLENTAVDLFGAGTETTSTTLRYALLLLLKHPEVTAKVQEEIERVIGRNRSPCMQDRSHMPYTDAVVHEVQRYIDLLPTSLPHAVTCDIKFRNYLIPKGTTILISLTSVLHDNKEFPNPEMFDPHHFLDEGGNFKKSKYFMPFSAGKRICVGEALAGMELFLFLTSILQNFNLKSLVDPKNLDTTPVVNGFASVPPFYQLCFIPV

Cytochrome P450 2C19 = Cytochrome P450 2C19 (Homo sapiens, UniProt P33261); test: Inhibition of human CYP2C19 expressed in bactosome; format: ADME
Cytochrome P450 2C19, sequence (P33261 whole entry): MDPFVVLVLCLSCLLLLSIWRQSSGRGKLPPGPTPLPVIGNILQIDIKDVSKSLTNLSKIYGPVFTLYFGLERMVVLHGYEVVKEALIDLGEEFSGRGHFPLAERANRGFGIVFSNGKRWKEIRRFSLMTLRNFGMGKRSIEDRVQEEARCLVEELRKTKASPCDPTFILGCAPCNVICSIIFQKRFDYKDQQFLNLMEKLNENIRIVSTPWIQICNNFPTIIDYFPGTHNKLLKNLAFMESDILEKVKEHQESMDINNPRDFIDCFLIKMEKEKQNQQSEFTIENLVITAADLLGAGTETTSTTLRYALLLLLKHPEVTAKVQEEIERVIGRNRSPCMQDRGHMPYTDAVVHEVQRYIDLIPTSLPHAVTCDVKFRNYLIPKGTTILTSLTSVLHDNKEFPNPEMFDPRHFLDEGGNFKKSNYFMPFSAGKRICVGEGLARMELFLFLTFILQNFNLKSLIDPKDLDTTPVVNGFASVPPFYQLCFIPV

Cytochrome P450 2D6 = Cytochrome P450 2D6 (Homo sapiens, UniProt P10635); test: Inhibition of human CYP2D6 expressed in bactosome; format: ADME
Cytochrome P450 2D6, sequence (P10635 whole entry): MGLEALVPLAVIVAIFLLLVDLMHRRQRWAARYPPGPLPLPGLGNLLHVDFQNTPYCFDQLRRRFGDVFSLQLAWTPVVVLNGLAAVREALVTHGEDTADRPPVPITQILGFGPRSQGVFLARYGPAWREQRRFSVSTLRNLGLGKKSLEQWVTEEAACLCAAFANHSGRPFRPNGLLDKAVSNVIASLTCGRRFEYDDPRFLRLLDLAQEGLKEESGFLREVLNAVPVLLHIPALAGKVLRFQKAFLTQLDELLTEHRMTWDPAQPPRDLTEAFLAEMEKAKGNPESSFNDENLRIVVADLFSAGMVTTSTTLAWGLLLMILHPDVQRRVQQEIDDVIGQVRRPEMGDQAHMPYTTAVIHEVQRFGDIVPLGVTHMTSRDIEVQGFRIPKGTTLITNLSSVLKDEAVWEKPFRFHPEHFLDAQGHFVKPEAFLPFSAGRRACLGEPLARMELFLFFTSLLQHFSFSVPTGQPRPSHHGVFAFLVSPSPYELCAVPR

Cytochrome P450 3A4 [3] = target: T3, Cytochrome P450 3A4 (Homo sapiens, UniProt P08684); test: Inhibition of human CYP3A4 expressed in bactosome using DBOMF as substrate; format: ADME
T3 sequence (P08684 whole entry): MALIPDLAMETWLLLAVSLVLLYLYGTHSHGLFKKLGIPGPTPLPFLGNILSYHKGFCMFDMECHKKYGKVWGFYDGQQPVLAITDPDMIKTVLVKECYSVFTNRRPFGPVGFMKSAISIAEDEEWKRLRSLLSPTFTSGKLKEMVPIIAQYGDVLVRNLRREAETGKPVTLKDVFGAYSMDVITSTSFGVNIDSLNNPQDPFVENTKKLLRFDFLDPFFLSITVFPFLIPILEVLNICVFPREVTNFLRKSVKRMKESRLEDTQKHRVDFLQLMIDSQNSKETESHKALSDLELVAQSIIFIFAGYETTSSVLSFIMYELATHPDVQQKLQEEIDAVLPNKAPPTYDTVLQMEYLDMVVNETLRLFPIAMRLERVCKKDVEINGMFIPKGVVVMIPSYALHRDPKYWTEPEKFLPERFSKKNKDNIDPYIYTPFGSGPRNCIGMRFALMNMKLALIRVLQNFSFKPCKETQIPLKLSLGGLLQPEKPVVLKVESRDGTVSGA

Cytochrome P450 3A4 [4] = target: T3, Cytochrome P450 3A4; test: Inhibition of human CYP3A4 expressed in bactosome using 7BQ as substrate; format: ADME
[5] = Intrinsic clearance in human liver microsomes assessed per mg of protein; format: ADME; conditions: read-out: CLH
[6] = Intrinsic clearance in rat liver microsomes assessed per mg of protein; format: ADME; conditions: read-out: CLH
[7] = Fraction absorbed in portal vein-cannulated rat; format: ADME, organism-based; conditions: in vivo
[8] = Volume of distribution at steady state in portal vein-cannulated rat; format: ADME, organism-based; conditions: in vivo, read-out: Vdss
[9] = Blood clearance in portal vein-cannulated rat; format: ADME, organism-based; conditions: whole blood
[10] = Half life in portal vein-cannulated rat; format: ADME, organism-based; conditions: in vivo
[11] = Hepatic extraction ratio in portal vein-cannulated rat; format: ADME, organism-based; conditions: in vivo, read-out: ERH
[12] = Bioavailability in portal vein-cannulated rat; format: ADME, organism-based; conditions: in vivo
[13] = Fraction unbound in portal vein-cannulated rat blood; format: ADME, tissue-based
[14] = Fraction unbound in portal vein-cannulated rat brain; format: ADME, tissue-based

Voltage-gated inwardly rectifying potassium channel KCNH2, sequence (Q12809 whole entry): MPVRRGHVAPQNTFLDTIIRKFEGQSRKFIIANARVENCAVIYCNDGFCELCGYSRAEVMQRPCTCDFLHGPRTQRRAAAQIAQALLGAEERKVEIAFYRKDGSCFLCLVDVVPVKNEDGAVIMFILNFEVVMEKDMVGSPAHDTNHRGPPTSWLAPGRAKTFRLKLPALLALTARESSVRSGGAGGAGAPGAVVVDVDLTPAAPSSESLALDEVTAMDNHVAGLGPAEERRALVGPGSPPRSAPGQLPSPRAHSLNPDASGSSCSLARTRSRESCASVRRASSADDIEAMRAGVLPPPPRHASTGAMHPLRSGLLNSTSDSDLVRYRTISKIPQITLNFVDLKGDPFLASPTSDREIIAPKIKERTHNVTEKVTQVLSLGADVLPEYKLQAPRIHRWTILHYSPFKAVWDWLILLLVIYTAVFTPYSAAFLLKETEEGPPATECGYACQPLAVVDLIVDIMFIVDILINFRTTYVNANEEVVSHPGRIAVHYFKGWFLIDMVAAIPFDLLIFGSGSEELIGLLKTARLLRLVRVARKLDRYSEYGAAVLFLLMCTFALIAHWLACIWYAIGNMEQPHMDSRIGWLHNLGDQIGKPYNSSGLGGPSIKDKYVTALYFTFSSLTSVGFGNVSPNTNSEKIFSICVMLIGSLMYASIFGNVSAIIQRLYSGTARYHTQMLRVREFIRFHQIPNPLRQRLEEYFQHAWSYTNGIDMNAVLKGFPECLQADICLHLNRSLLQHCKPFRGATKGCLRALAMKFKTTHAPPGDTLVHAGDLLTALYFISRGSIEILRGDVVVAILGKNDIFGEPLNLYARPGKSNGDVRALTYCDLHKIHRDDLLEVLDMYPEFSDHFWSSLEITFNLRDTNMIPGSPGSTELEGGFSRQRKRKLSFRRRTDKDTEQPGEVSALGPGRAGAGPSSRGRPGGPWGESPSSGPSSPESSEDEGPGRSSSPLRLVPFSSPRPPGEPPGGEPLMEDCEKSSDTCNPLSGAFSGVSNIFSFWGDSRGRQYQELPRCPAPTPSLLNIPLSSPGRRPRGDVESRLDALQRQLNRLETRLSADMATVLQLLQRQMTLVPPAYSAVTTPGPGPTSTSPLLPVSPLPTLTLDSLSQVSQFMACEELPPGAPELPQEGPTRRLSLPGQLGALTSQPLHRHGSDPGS
D(3) dopamine receptor, sequence (P19020 whole entry): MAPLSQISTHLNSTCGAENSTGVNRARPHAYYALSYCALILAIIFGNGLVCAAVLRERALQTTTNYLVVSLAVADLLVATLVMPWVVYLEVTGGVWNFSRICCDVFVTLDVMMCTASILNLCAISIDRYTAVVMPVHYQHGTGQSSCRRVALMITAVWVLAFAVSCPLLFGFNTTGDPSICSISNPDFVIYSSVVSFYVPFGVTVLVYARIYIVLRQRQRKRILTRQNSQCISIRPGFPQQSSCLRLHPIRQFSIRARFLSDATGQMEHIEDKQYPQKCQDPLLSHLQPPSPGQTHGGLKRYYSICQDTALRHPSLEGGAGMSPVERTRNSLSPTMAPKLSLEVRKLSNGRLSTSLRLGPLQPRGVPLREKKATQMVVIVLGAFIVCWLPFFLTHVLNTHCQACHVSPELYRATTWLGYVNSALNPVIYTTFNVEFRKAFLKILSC

Cc1ncoc1-c1nnc(SCCCN2CCOC(c3ccc(F)cc3)C2)n1C (stereo in doubt; 7)
pKi (D(3) dopamine receptor): 6.60 | pKi [1]: 5.50 | pKi [2]: 5.50 | pIC50 (Cytochrome P450 1A2): < 4.52 | pIC50 (Cytochrome P450 2C9): < 4.52 | pIC50 (Cytochrome P450 2C19): < 4.52 | pIC50 (Cytochrome P450 2D6): < 4.52 | pIC50 (Cytochrome P450 3A4 [3]): < 4.52 | pIC50 (Cytochrome P450 3A4 [4]): < 4.52 | microsomal CLint [5]: 21.7 µL/min/mg | microsomal CLint [6]: < 9 µL/min/mg | Fa [7]: 100% | Vd [8]: 2.61 L/kg | clearance [9]: 40 mL/min/kg | half-life [10]: 48 min | hepatic extraction ratio [11]: 0.1 | bioavailability [12]: 100% | fraction unbound [13]: 0.17 | fraction unbound [14]: > 0.5
